Test results reported in article PMC9737972, “Dual LSD1 and HDAC6 Inhibition Induces Doxorubicin Sensitivity in Acute Myeloid Leukemia Cells” (Cancers, 2022).

Columns and labels:
[1] = tested on: MOLM-13; assay: Cell Titer-Glo cell viability, MOLM-13; type: cell-based; conditions: Homo sapiens, MOLM-13; 120 h, ± standard deviation, three biological repeats; read-out: IC50 cell viability MOLM-13
[2] = tested on: normal RPE-1 cells; assay: Cell viability of normal RPE-1 cells (CTG); type: cell-based; conditions: 120 h
[3] = molecular target: T1, HDAC6 (Homo sapiens, UniProt Q9UBN7); assay: Cellular thermal shift assay (CETSA), HDAC6; type: cell-based; conditions: THP-1 cells, 1 h; 4 μM (methods, Figure 2), Figure S14 legend 500 nM
T1 construct: endogenous in cells; host or cells: THP-1
T1 sequence (Q9UBN7 1-1215): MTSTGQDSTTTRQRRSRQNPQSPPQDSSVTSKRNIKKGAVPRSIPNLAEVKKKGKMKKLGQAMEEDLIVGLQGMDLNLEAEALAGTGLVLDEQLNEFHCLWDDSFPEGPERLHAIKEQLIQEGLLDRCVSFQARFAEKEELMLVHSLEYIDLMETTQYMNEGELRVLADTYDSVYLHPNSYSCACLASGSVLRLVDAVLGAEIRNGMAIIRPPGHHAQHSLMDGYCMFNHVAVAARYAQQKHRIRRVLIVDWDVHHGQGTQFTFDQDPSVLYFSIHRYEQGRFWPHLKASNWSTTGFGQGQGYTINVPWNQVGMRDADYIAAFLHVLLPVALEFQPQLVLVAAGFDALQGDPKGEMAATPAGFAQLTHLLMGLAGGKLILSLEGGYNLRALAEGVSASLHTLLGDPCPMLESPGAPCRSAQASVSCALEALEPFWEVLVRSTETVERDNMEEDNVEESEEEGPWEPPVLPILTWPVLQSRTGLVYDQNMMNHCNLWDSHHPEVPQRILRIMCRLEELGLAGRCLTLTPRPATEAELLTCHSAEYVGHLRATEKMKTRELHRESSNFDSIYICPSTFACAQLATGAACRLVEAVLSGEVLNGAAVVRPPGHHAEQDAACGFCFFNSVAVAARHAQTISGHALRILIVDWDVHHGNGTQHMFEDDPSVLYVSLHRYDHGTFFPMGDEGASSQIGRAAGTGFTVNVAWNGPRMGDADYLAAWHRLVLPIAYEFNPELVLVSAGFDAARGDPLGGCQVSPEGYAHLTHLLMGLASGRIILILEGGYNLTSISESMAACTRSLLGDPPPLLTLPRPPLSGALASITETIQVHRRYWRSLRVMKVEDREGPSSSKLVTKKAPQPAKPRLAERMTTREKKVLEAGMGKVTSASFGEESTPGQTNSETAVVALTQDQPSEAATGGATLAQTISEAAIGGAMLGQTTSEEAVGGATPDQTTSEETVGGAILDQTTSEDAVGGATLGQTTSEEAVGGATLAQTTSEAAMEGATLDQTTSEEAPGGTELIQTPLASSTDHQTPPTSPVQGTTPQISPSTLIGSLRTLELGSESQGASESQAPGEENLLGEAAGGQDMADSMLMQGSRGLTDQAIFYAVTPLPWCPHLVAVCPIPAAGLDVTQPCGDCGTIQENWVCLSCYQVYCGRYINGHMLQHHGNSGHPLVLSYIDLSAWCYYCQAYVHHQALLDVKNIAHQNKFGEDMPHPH
Experimental: (§1) THP-1 cells, 1 × 10^7 cells at a density of 1 × 10^6 cells/mL, were treated with 4 μM of test compounds (1 h, 37 °C, 5% CO2). Cells were centrifuged, and the pellet was resuspended with 1 × Phosphate Buffer Saline (Gibco, Grand Island, NY, USA, #10010023) containing 1 × Protease Inhibitor Cocktail (Cell Signaling Technology, Beverly, MA, USA, #5871) and 1 mM phenylmethylsulfonyl fluoride (PMSF, Sigma Aldrich, St. Louis, MO, USA, #10837091001). The suspension volume was divided equally and heated for 3 min at 43–64 °C in a T100 Thermal Cycler (Bio-rad, Hercules, CA, USA). For protein extraction, cells were snap-frozen using liquid nitrogen, thawed twice (25 °C, 1 min), then centrifuged (20,000× g, 15 min, 4 °C). Following centrifugation, protein containing supernatants were denatured at 70 °C for 10 min and loaded on SDS-PAGE gels (Bio-Rad, Hercules, CA, USA, 161-0317). After electrophoresis (100 V and 60 min), proteins were transferred onto PVDF membrane (Bio-Rad #1620177) at 200 mA for 180 min and immunoblotted with primary antibodies (1:10,000 dilution for anti-LSD1 Antibody ab129195 [EPR6825], 1:1000 dilution for Anti-HDAC6 Antibody CST 7558, 1:1000 dilution for Anti-HDAC1 Antibody ab53091, 1:1000 dilution for Anti-HDAC8 Antibody ab187139, 1:5000 dilution for Anti-beta Actin Antibody ab8227) overnight at 4 °C. The next day, membranes were incubated with HRP-conjugated secondary antibodies (1:5000 dilution for Abcam, Cambridge, UK, ab205718) for 1 h at room temperature. The signal was detected with BIORAD Chemi-Doc XRS+ System and by using Immobilon Forte Western HRP Substrate (WBLUF0500).

[4] = tested on: LSD1 and HDAC substrates in THP-1 cells; assay: Western blot of methylation and acetylation levels of LSD1 and HDAC substrates; type: cell-based; conditions: 4 μM
[5] = tested on: DU-145; assay: Wound healing assay, DU-145; type: cell-based; conditions: 4 μM, 72 h, 1% FBS
Experimental: Figure S20. Wound healing assay with iDual and ricolinostat. (A) MDA-MB-231 and (B) DU-145 […]
and ricolinostat for 72 h cells grown in relative medium with (1%) FBS conditions. Wound healing is photographed with Nikon Eclipse TS 100 microscope. Wound/healed area is quantified using Image […]

[6] = tested on: THP-1 cells; assay: Combination treatment with antileukemic drugs, THP-1 cell viability; type: cell-based; conditions: compound 5 μM 72 h, then compound + etoposide 0.2 μM 48 h
[7] = tested on: THP-1 cells; assay: Annexin V/7-AAD staining (flow cytometry); type: cell-based; conditions: sublethal concentration (5 μM)
Experimental: Treated cells were centrifuged at 300× g for 5 min, and the pellet was resuspended with 1% FBS in PBS (5 × 10^5 cells/mL). Annexin V dye (Merck Millipore, Burlington, MA, USA, MCH100105) was mixed with the cell suspension in a 1:1 ratio and the mixture incubated at RT for 20 min.

[8] = molecular target: T2, LSD1 (Homo sapiens, UniProt O60341); assay: Cellular thermal shift assay (CETSA), LSD1; type: cell-based; parameters: endogenous in cells; host or cells: THP-1; conditions: THP-1 cells, 1 h; 4 μM (methods, Figure 2), Figure S14 legend 500 nM
Experimental: as §1

[9] = tested on: THP-1 cells; assay: Caspase 3/7 and 7-AAD staining (flow cytometry); conditions: sublethal concentration (5 μM)
[10] = molecular target: T2, LSD1; assay: LSD1 MALDI-TOF enzyme assay; type: biochemical; parameters: made in house; conditions: ± standard error, three independent measurements

Structure (SMILES)	IC50 [1] [µM]	toxicity on normal RPE-1 cells [2]	thermal stabilization of HDAC6 (CETSA) [3]	levels of the histone substrate H3K4me2 ([4]; 24 h)	nuclear histone H3 acetylation (H3K18ac and H3K27ac levels), change vs DMSO ([4]; 24 h (ricolinostat 0.75 μM or 4 μM))	wound healing capacity DU-145 [5]	cell viability after pre-treatment with compound and co-treatment with etoposide [6]	apoptosis by annexin V/7-AAD staining, compound alone [7]	thermal stabilization of LSD1 (CETSA) [8]	apoptosis by caspase activity, compound alone [9]	IC50 [10] [µM]
O=C(NO)c1ccc(CN2CCC(CN[C@@H]3C[C@H]3c3ccccc3)CC2)cc1 (relative stereo) [iDual]	1.3 ± 0.4	no significant toxicity	increased thermal stability	increase	two-fold	slowed down	decreased cell viability was not observed	did not induce apoptosis	increased thermal stability	did not induce apoptosis	–
O=C(NO)c1ccc(CN2CCC(CNC3(c4ccccc4)CC3)CC2)cc1 [iHDAC6]	6.7 ± 1.6	–	stabilized HDAC6 only	–	–	–	–	–	–	–	> 100
